Measured values published in patent US20220047617A1, “Nucleic acid nanocarrier drug, preparation method, pharmaceutical composition and use thereof” (BAI YAO ZHI DA (BEIJING) NANOBIO TECHNOLOGY CO., LTD., priority 2018, published 2022).

B1: R-20: extension fragment deformation+core short-sequence RNA nanoparticles, strands SEQ ID NO: 135-137, a-strand 3′-biotin, 2′F (nucleic acid)
chain 1: GCGGCGAGCGGCGACGAGCGUUGCGGCCGGAGGCCGG
chain 2: CCGGCCUCCGGCCGCUUCGCCGCCAGCCGCC
chain 3: GGCGGCAGGCGGCCAUAGCCGUCGCCGCUCGCCGC
modifications: RNA nanoparticle strands, 2'-fluoro modified, a-strand 3'-biotin, positions not given here

Legend:
U87MG cells = test: Cytotoxicity in U87MG cells (CellTiter-Glo), Embodiment 8; type: cell-based
Procedure: Cytotoxicity Research of RNAh-Bio-670-Paclitaxel Nanoparticles in U87MG Cells
1) Cell Culturing and Plating
U87MG cells are cultured at 37 DEG C. and 5% CO2 in the EMEM basal medium in which 10% FBS and 1% PS are respectively added. The cell density used in the experiment is above 80%. The cells are collected, and centrifuged at 1000 rpm for 4 minutes, the medium is resuspended, the cell concentration is adjusted, and it is added to the 96-well plate in a volume of 5000 cells per 90 μL, and each group has 4 replicate wells.
2) Gradient Drug Concentration Preparation and Administration […]
Medium (untreated) control: only cells without compound treatment
Blank control: without cells, used for instrument zero calibration
3) Cell Culture after Administration
4) Cells Treated by Detection Kit
The well plate is brought to a room temperature in advance and stands for 30 minutes. 100 μL of a CellTiter-Glo® reagent is added to each well of the well plate and mixed for 2 minutes on a shaker to promote cell lysis. The Perkin Elmer Envision 2104 Multilabel Reader is used to read values and the values are recorded.
5) Experiment Data Acquisition and Processing
The acquired experiment data is analyzed and processed by using excel software, and GraphPad Prism 5 software is used for curve fitting analysis.

SKOV3 cells = test: Cytotoxicity in SKOV3 cells (CellTiter 96 AQueous One Solution), Embodiment 9; type: cell-based; conditions: Homo sapiens, SK-OV-3; SKOV3, 96 hours
Procedure: 2) adjusting the cell density to 2.22×10^4/mL with a growth medium;
3) planting 90 μL/well of cell suspension into the 96-well plate, herein the number of cells per well in the plate is 2000;
4) placing the planted cell plate in the incubator at 37 DEG C. and incubating overnight;
5) performing 3.16-fold gradient dilution on the compound at 9 concentration points;
7) placing the cell culture plate in the incubator and continuously incubating for 96 hours;
8) placing the CellTiter 96® AQueous One Solution reagent at the room temperature and thawing for 90 minutes or thawing in a water bath at 37 DEG C., and placing at the room temperature and equilibrating for 30 minutes;
9) adding 20 μL/well of the CellTiter 96® AQueous One Solution reagent to the cell culture plate;
10) placing the cell culture plate in the incubator at 37 DEG C. and continuously incubating for 3 hours;
11) using a microplate reader to read a OD490 value of each well in the cell plate; and 12) data processing and analysis.
GraphPad Prism 5.0 software is used to process data graphically. In order to calculate the IC50, “S”-shaped nonlinear regression analysis is performed on the data to match an appropriate dosage-effect curve. A calculation formula of the survival rate is as follows, the IC50 may be automatically calculated in GraphPad Prism 5.0. […]

[1] = Particle size measurement (DLS hydrodynamic size); type: physicochemical
From the text: (3) Particle Size Measurement
1. Preparing a potential sample (conventional-sequence DNA self-assembly product D-7) and putting into a sample pool, opening a sample pool cover of an instrument, and placing the instrument;
2. opening software, and clicking a menu, so a manual measurement parameter setting dialog box appears;
3. setting a software detection parameter; and then
4. clicking Ok to complete the settings, when a measurement dialog box appears, clicking Start to start, a DLS measurement value result of a hydrodynamic size of the self-assembly product D-7 is shown below in Table 40:
(3) Particle size measurement
(2) opening software, and clicking a menu, so a manual measurement parameter setting dialog box appears;
(3) setting a software detection parameter; and then

[2] = TM value detection by solubility curve method (SYBR Green I); type: physicochemical; conditions: extension fragment deformation+core short-sequence RNA nanoparticles; temperature at ½ RFUmax in 20 to 90 DEG C. taken as Tm
Procedure: A solubility curve method is used to detect TM values of the 7 groups of the extension fragment deformation+core short-sequence RNA nanoparticles, and the samples are consistent with the potential samples.
(1) After the sample is diluted with ultrapure water, 5 μg of the diluted sample is mixed with 2 μL of SYBR Green I dye (diluted by 1:200), a final volume is 20 μL, and the dilution concentration is as follows:
(2) It is incubated for 30 min in the dark at a room temperature; and
(3) On-machine detection is performed, a program is set to start at 20 DEG C., the temperature rises per second from 0.1 DEG C. to 95 DEG C., and reading is performed every 5 s.
Due to the particularity of the RNA samples, a temperature corresponding to ½ RFUmax in a range of 20 to 90 DEG C. is used as a sample Tm value in this test.
A solubility curve method is used to detect TM values of the 7 groups of the extension fragment deformation+core short-sequence DNA nanoparticles, and the samples are consistent with the potential samples.

Molecule | inhibition rates of the drugs to the cells (U87MG cells; drug concentration is 10 μM) [%] | cell survival rate (%) (U87MG cells; treatment time 72 h, 200 nM of each sample per well (method)) | IC50 (SKOV3 cells) [nM] | Mean particle size (nm) [1] [nm] | TM value [2] [°C]
CC(=O)O[C@H]1C(=O)[C@@]2(C)[C@H]([C@H](OC(=O)c3ccccc3)[C@]3(O)C[C@H](OC(=O)[C@H](O)[C@@H](NC(=O)c4ccccc4)c4ccccc4)C(C)=C1C3(C)C)[C@]1(OC(C)=O)CO[C@@H]1C[C@@H]2O [Paclitaxel, paclitaxel] | 23.77 | 56.74 | < 1 |  | 
B1 |  |  |  | 7.110 | 59.5
